Test results taken from patent US6875865B1, “Selected derivatives of K-252a” (Cephalon, Inc., priority 1996, dated 2005).

Tests used:
[1] = test system: dissociated spinal cord cultures; experiment: Spinal Cord ChAT Activity Assay; format: cell-based, rat
Experimental: The effect of selected ring substituted K-252a derivatives on CHAT activity was assayed in dissociated spinal cord cultures prepared from fetal rats using the procedure described in U.S. Pat. No. 5,461,146, Columns 26 and 27, Examples 6 and 7. ChAT is the enzyme that catalyzes the synthesis of the neurotransmitter acetylcholine, and it is a specific biochemical marker for cholinergic neurons. In the spinal cord, the large majority of cholinergic neurons are motor neurons. Assay of this enzyme may thus be used as an indication of the effects of a factor, or actors, on the survival of cholinergic neurons and/or regulation of this enzyme.
(§1) Compounds which increased ChAT activity at least 120% of the control activity are considered active.

basal forebrain cultures = experiment: Basal Forebrain ChAT Activity Assay; format: cell-based, rat; conditions: day six
Experimental: Compounds of the invention were assessed for their ability to promote survival and increase in ChAT activity in basal forebrain cultures. ChAT activity in these cultures is a biochemical marker for the cholinergic neurons (less than 5% of the cells in culture), which represent the major cholinergic input to the hippocampal formation, olfactory nucleus, interpeduncular nucleus, cortex, amygdala, and parts of the thalamus. […] The basal forebrain was dissected from embryonic day 17 or 18 rat embryos and the cells were […] with Dispase™ (neutral protease, Collaborative Research). Neurons were plated at 5×10^4 cells/well (1.5×10^5 cells/cm^2) in wells of 96-well plates previously coated with […] and laminin. Cells were cultured in serum-free N2 medium containing 0.05% bovine serum albumin (BSA) (Bottenetein et al., supra) at 37° in a humidified atmosphere of 5% CO2/95% air. ChAT activity was measured in vitro at day six, using a modification of the Formum procedure (supra) according to McManaman et al. (supra) and Glicksman et al. (J. Neurochem. 61:210-221, 1993).
as §1

protein kinase C (PKC) = conditions: reported in the literature; cited from earlier work
[2] = concentration not given, tested between 10 nM and 500 nM, at least 120% of control = active
[3] = concentration not given, at least 120% of control = active

SMILES	ChAT Activity maximum efficacy % of Control (conc) ([1]; maximum efficacy at 300 nM)	ChAT Activity maximum efficacy % of Control (conc) (basal forebrain cultures; maximum efficacy at 250 nM)	other results
CCSCC(=O)c1ccc2c(c1)c1c3c(c4c5ccccc5n5c4c1n2C1(C)OC5CC1(O)C(=O)OC)C(=O)NC3 (stereo not drawn) [Compound 41]	204 (300 nM) % of Control		ChAT Activity maximum efficacy % of Control (conc) (basal forebrain cultures; [2]): <120 % of Control
COCCC(=O)c1ccc2c(c1)c1c3c(c4c5cc(C(=O)CCOC)ccc5n5c4c1n2C1CC(O)(C(=O)OC)C5(C)O1)CNC3=O (stereo not drawn) [Compound 54]		167 (250 nM) % of Control	ChAT Activity maximum efficacy % of Control (conc) [1, 3]: <120 % of Control
COC(=O)C1(O)CC2OC1(C)n1c3ccc(CCOC(=O)c4ccncc4)cc3c3c4c(c5c6cc(CCOC(=O)c7ccncc7)ccc6n2c5c31)C(=O)NC4 (stereo not drawn) [Compound 71]	193 (300 nM) % of Control	152 (250 nM) % of Control	
COC(=O)C1(O)CC2OC1(C)n1c3ccc(CCO)cc3c3c4c(c5c6cc(CCO)ccc6n2c5c31)C(=O)NC4 (stereo not drawn) [Compound 70c]	186 (300 nM) % of Control	203 (250 nM) % of Control	
CCOC(=O)C=Cc1ccc2c(c1)c1c3c(c4c5ccccc5n5c4c1n2C1(C)OC5CC1(O)C(=O)OC)C(=O)NC3 (stereo not drawn) [Compound 12]	269 (300 nM) % of Control		ChAT Activity maximum efficacy % of Control (conc) (basal forebrain cultures; maximum efficacy at 500 nM): 184 (500 nM) % of Control
CCC=Cc1ccc2c(c1)c1c3c(c4c5cc(C=CCC)ccc5n5c4c1n2C1CC(O)(C(=O)OC)C5(C)O1)CNC3=O (stereo not drawn) [Compound 68]	291 (300 nM) % of Control	290 (250 nM) % of Control	
COC(=O)C1(O)CC2OC1(C)n1c3ccc(CCN=[N+]=[N-])cc3c3c4c(c5c6cc(CCN=[N+]=[N-])ccc6n2c5c31)C(=O)NC4 (stereo not drawn) [Compound 81]	131 (300 nM) % of Control		ChAT Activity maximum efficacy % of Control (conc) (basal forebrain cultures; [2]): <120 % of Control
COC(=O)C1(O)CC2OC1(C)n1c3ccc(CCSc4ccc(O)cc4)cc3c3c4c(c5c6cc(CCSc7ccc(O)cc7)ccc6n2c5c31)C(=O)NC4 (stereo not drawn) [Compound 91]			ChAT Activity maximum efficacy % of Control (conc) [1, 3]: <120 % of Control; ChAT Activity maximum efficacy % of Control (conc) (basal forebrain cultures; [2]): <120 % of Control
CCSCCc1ccc2c(c1)c1c3c(c4c5cc(CCSCC)ccc5n5c4c1n2C1CC(O)(C(=O)OC)C5(C)O1)CNC3=O (stereo not drawn) [Compound 88]	190 (300 nM) % of Control		ChAT Activity maximum efficacy % of Control (conc) (basal forebrain cultures; [2]): <120 % of Control
COC(=O)C1(O)CC2OC1(C)n1c3ccc(CCCSC)cc3c3c4c(c5c6cc(CCCSC)ccc6n2c5c31)C(=O)NC4 (stereo not drawn) [Compound 95]	272 (300 nM) % of Control	239 (250 nM) % of Control	
COC(=O)C1(O)CC2OC1(C)n1c3ccc(C=Cc4ccccn4)cc3c3c4c(c5c6ccccc6n2c5c31)C(=O)NC4 (stereo not drawn) [Compound 13]			ChAT Activity maximum efficacy % of Control (conc) ([1]; maximum efficacy at 30 nM): 271 (30 nM) % of Control; ChAT Activity maximum efficacy % of Control (conc) (basal forebrain cultures; maximum efficacy at 100 nM): 167 (100 nM) % of Control
COC(=O)C1(O)CC2OC1(C)n1c3ccc(CCc4ccccn4)cc3c3c4c(c5c6ccccc6n2c5c31)C(=O)NC4 (stereo not drawn) [Compound 14]	282 (300 nM) % of Control		ChAT Activity maximum efficacy % of Control (conc) (basal forebrain cultures; maximum efficacy at 500 nM): 229 (500 nM) % of Control
COC(=O)C1(O)CC2OC1(C)n1c3ccc(CCSc4ccccn4)cc3c3c4c(c5c6cc(CCSc7ccccn7)ccc6n2c5c31)C(=O)NC4 (stereo not drawn) [Compound 94]	152 (300 nM) % of Control	166 (250 nM) % of Control	
COC(=O)C1(O)CC2OC1(C)n1c3ccccc3c3c4c(c5c6ccccc6n2c5c31)C(=O)NC4 (stereo not drawn) [Compound K-252a, K-252a]			inhibition of protein kinase C (PKC) (protein kinase C (PKC)): strongly inhibits
COC(=O)C1(O)CC2OC1(C)n1c3ccc(CCSC)cc3c3c4c(c5c6cc(CCSC)ccc6n2c5c31)C(=O)NC4 (stereo not drawn) [Compound 87]	294 (300 nM) % of Control	262 (250 nM) % of Control	
COC(=O)C1(O)CC2OC1(C)n1c3ccc(C#CCN(C)Cc4ccccc4)cc3c3c4c(c5c6cc(Br)ccc6n2c5c31)C(=O)NC4 (stereo not drawn) [Compound 62]	235 (300 nM) % of Control		ChAT Activity maximum efficacy % of Control (conc) (basal forebrain cultures; maximum efficacy at 50 nM): 202 (50 nM) % of Control
COC(=O)C1(O)CC2OC1(C)n1c3ccc(C(=O)CSc4nnnn4C)cc3c3c4c(c5c6cc(C(=O)CSc7nnnn7C)ccc6n2c5c31)C(=O)NC4 (stereo not drawn) [Compound 52]			ChAT Activity maximum efficacy % of Control (conc) [1, 3]: <120 % of Control; ChAT Activity maximum efficacy % of Control (conc) (basal forebrain cultures; [2]): <120 % of Control
COC(=O)C1(O)CC2OC1(C)n1c3ccc(C(O)CCCl)cc3c3c4c(c5c6cc(C(O)CCCl)ccc6n2c5c31)C(=O)NC4 (stereo not drawn) [Compound 59]	160 (300 nM) % of Control	131 (250 nM) % of Control	
COC(=O)C1(O)CC2OC1(C)n1c3ccccc3c3c4c(c5c6cc(C=Cc7ncc[nH]7)ccc6n2c5c31)C(=O)NC4 (stereo not drawn) [Compound 148]	206 (300 nM) % of Control		
